Measured values taken from article PMC10648349, “Aromatic Diboronic Acids as Effective KPC/AmpC Inhibitors” (Molecules, 2023).
≈ marks a conversion by molar mass, not a printed value. Where two headings read alike, the source gives them in different places.

Experiments:
[1] = tested on: C. guilliermondii IBA 155; experiment: antifungal activity (disc-diffusion, MIC, MFC); type: cell-based, Candida guilliermondii; details: Meyerozyma guilliermondii, IBA155; for zone of inhibition at 0.4 mg/disc: 0.4 mg per disc, 9 mm disc (fluconazole 0.025 mg, 6 mm disc), - no zone, read-out: Diameter of inhibition zone; for MIC: fluconazole by Etest
Method in brief: (§1)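 Testing of direct antimicrobial action relied on CLSI and EUCAST protocols, namely disc diffusion, MIC and cidal-concentration determinations. Each disc carried 0.4 mg of test agent.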

[2] = tested on: K. pneumoniae ATCC BAA 1705 KPC-2-positive; experiment: combination disc test CDT-KPC; type: cell-based; details: Klebsiella pneumoniae
E. coli 77 CMY-2(+) = experiment: MIC of tested agent alone, microdilution; type: cell-based
Method in brief: (§2)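 Broth microdilution checkerboard: β-lactam in seven two-fold dilutions (1–64 mg/L) against tested agent or PBA in three two-fold dilutions (4–16 mg/L). Antibiotic MICs were read at each agent level, with agent-alone MICs run in parallel by microdilution.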

[3] = tested on: K. pneumoniae 81 KPC-3(+); experiment: MIC of tested agent alone, microdilution; type: cell-based
Method in brief: as §2

[4] = tested on: K. pneumoniae 83 KPC-3(+), CTX-M-3(+); experiment: MIC of tested agent alone, microdilution; type: cell-based
Method in brief: as §2

E. coli 76 KPC-2(+) = experiment: MIC of tested agent alone, microdilution; type: cell-based
Method in brief: as §2

[5] = tested on: K. pneumoniae ATCC BAA-1705 KPC-2(+); experiment: MIC of tested agent alone, microdilution; type: cell-based
Method in brief: as §2

[6] = tested on: P. aeruginosa MUW 700 AmpC(+); experiment: MIC of tested agent alone, microdilution; type: cell-based
Method in brief: as §2

[7] = tested on: P. aeruginosa MUW 700 cAmpC-positive; experiment: combination disc test CDT-AmpC; type: cell-based; details: Pseudomonas aeruginosa, read-out: Diameter of inhibition zone, CAZ-30 disc with agent
C. tropicalis ATCC 750 = experiment: antifungal activity (disc-diffusion, MIC, MFC); type: cell-based; details: Candida tropicalis, ATCC750; for zone of inhibition at 0.4 mg/disc: 0.4 mg per disc, 9 mm disc (fluconazole 0.025 mg, 6 mm disc), - no zone, read-out: Diameter of inhibition zone; for MIC: fluconazole by Etest
Method in brief: as §1

S. cerevisiae ATCC 9763 = experiment: antifungal activity (disc-diffusion, MIC, MFC); type: cell-based; details: Saccharomyces cerevisiae, ATCC9763; for zone of inhibition at 0.4 mg/disc: 0.4 mg per disc, 9 mm disc (fluconazole 0.025 mg, 6 mm disc), - no zone, read-out: Diameter of inhibition zone; for MIC: fluconazole by Etest
Method in brief: as §1

C. tropicalis IBA 171 = experiment: antifungal activity (disc-diffusion, MIC, MFC); type: cell-based; details: Candida tropicalis, IBA171; for zone of inhibition at 0.4 mg/disc: 0.4 mg per disc, 9 mm disc (fluconazole 0.025 mg, 6 mm disc), - no zone, read-out: Diameter of inhibition zone; for MIC: fluconazole by Etest
Method in brief: as §1

C. albicans ATCC 90028 = experiment: antifungal activity (disc-diffusion, MIC, MFC); type: cell-based; details: Candida albicans, ATCC90028; for zone of inhibition at 0.4 mg/disc: 0.4 mg per disc, 9 mm disc (fluconazole 0.025 mg, 6 mm disc), - no zone, read-out: Diameter of inhibition zone; for MIC: fluconazole by Etest
Method in brief: as §1

E. faecalis ATCC 29212 = experiment: direct antimicrobial activity (disc-diffusion, MIC, MBC); type: cell-based; details: Enterococcus faecalis, ATCC29212
Method in brief: as §1

E. faecium ATCC 6057 = experiment: as above; type: cell-based; details: Enterococcus faecium, ATCC6057
Method in brief: as §1

S. aureus ATCC 6538P = experiment: as above; type: cell-based; details: Staphylococcus aureus, ATCC6538P
Method in brief: as §1

[8] = tested on: S. epidermidis ATCC 12228; experiment: as above; type: cell-based; details: Staphylococcus epidermidis, ATCC12228
Method in brief: as §1

[9] = tested on: S. aureus ATCC 43300 MRSA; experiment: as above; type: cell-based; details: Staphylococcus aureus
Method in brief: as §1

[10] = tested on: P. aeruginosa MUW 700 cAmpC-positive; experiment: checkerboard microdilution, antibiotic plus tested agent; type: cell-based, Pseudomonas aeruginosa
Description: To examine the ability of tested agents to inhibit various carbapenemases and AmpC-enzymes, their synergy with antibiotics against β-lactamase-producing strains was assessed by checkerboard microdilution assay, with slight modification. Checkerboards were prepared in microtiter plates, with seven two-fold dilutions of β-lactams (1–64 mg/L) in the rows and three two-fold dilutions of tested agents and PBA (4–16 mg/L) in the columns. Tested agents’ concentrations were limited to the concentrations at which the newest commercially available BLIs (vaborbactam, relebactam, and avibactam) are used in susceptibility testing. Plates were inoculated and incubated as in the MIC microdilution assay. Parallel, MICs of tested agents and PBA alone were determined by the microdilution assay. Following the incubation, antibiotic MICs in the presence of each agent’s concentration were determined. Moreover, for the first well without growth found in each checkerboard row and column along the growth/non-growth interface, the fractional inhibitory concentration index (FICI) was calculated using the formula below:FICI = [(MIC of antibiotic in combination)/(MIC of antibiotic alone)] + [(MIC of the tested agent in combination)/(MIC of tested agent alone)].
For calculations, all off-scale MICs were converted to the next-highest doubling concentration. Subsequently, both the average and the lowest FICI were interpreted. The interpretation was as follows: FICI ≤ 0.5, synergy; 0.5 < FICI ≤ 4, indifference and FICI > 4, antagonism. Primarily, examined combinations consisted of meropenem (Pol-Aura, Morag, Poland) plus tested agents against carbapenemases-producing strains and ceftazidime (Pol-Aura, Morag, Poland) plus tested agents against AmpC-producing strains. For agents that reduced meropenem MIC at least 4-fold for at least two tested strains, similar assays were performed with imipenem (Pol-Aura, Morag, Poland) and ertapenem (Pol-Aura, Morag, Poland).

B. subtilis ATCC 6633 = experiment: direct antimicrobial activity (disc-diffusion); type: cell-based; details: Bacillus subtilis, ATCC6633; 0.4 mg per disc, 9 mm disc (linezolid 0.03 mg, 6 mm disc); - no zone; read-out: Diameter of inhibition zone
Method in brief: as §1

[11] = Escherichia coli; read-out: MIC of agent alone
[12] = Klebsiella pneumoniae; read-out: MIC of agent alone
[13] = 0.4 mg per disc, 9 mm disc (linezolid 0.03 mg, 6 mm disc), - no zone, read-out: Diameter of inhibition zone
[14] = Escherichia coli, read-out: MIC of agent alone
[15] = Klebsiella pneumoniae, read-out: MIC of agent alone

Row | SMILES | zone of inhibition at 0.4 mg/disc [1] | MIC [1] | zone of inhibition at 0.4 mg/disc (C. tropicalis ATCC 750) | MIC (C. tropicalis ATCC 750) | zone of inhibition at 0.4 mg/disc (S. cerevisiae ATCC 9763) | MIC (S. cerevisiae ATCC 9763) | zone of inhibition at 0.4 mg/disc (C. tropicalis IBA 171) | MIC (C. tropicalis IBA 171) | zone of inhibition at 0.4 mg/disc (C. albicans ATCC 90028) | MIC (C. albicans ATCC 90028) | MIC (E. faecalis ATCC 29212) | MIC (E. faecium ATCC 6057) | MIC (S. aureus ATCC 6538P) | MIC [8] | MIC [9] | Average FICI with ceftazidime [10] | Interpretation of the average FICI with ceftazidime [10] | Interpretation of the lowest FICI with ceftazidime [10] | The lowest FICI with ceftazidime [10] | also measured
1 | OB(O)c1cc(F)ccc1F [7a, 2,5-difluorophenylboronic acid] | 33 mm | 25 µg/mL (≈ 158 µM) | 21 mm | 50 µg/mL (≈ 317 µM) | 18 mm | 50 µg/mL (≈ 317 µM) | 25 mm | 25 µg/mL (≈ 158 µM) | 29 mm | 25 µg/mL (≈ 158 µM) | 400 µg/mL (≈ 2530 µM) | 400 µg/mL (≈ 2530 µM) | 50 µg/mL (≈ 317 µM) | 100 µg/mL (≈ 633 µM) | 100 µg/mL (≈ 633 µM) | 0.17 | S (FICI ≤ 0.5, synergy) | S (FICI ≤ 0.5, synergy) | 0.10 | zone of inhibition at 30 µg/disc ([2]; BAA1705, agent 0.03 mg per disc, read-out: Diameter of inhibition zone, MEM-10 disc with agent): 13 mm; MIC (E. coli 77 CMY-2(+); [11]): 100 µg/mL; MIC [3, 12]: 200 µg/mL; MIC [4, 12]: 100 µg/mL; MIC (E. coli 76 KPC-2(+); [11]): 100 µg/mL; MIC ([5]; Klebsiella pneumoniae, ATCCBAA1705; read-out: MIC of agent alone): 100 µg/mL; MIC ([6]; Pseudomonas aeruginosa; read-out: MIC of agent alone): 400 µg/mL; zone of inhibition at 30 µg/disc ([7]; agent 0.03 mg per disc): 17 mm
2 | O=Cc1cc(F)ccc1B(O)O [7b] | 27 mm | 25 µg/mL (≈ 149 µM) | 21 mm | 50 µg/mL (≈ 298 µM) | 35 mm | 6.25 µg/mL (≈ 37.2 µM) | 22 mm | 50 µg/mL (≈ 298 µM) | 31 mm | 6.25 µg/mL (≈ 37.2 µM) | 200 µg/mL (≈ 1190 µM) | 200 µg/mL (≈ 1190 µM) | 50 µg/mL (≈ 298 µM) | 50 µg/mL (≈ 298 µM) | 50 µg/mL (≈ 298 µM) |  |  |  |  | zone of inhibition at 0.4 mg/disc (B. subtilis ATCC 6633): 22 mm; zone of inhibition at 0.4 mg/disc (E. faecalis ATCC 29212; [13]): 14 mm; zone of inhibition at 0.4 mg/disc (E. faecium ATCC 6057; [13]): 14 mm; MBC (S. aureus ATCC 6538P): 100 µg/mL (≈ 595 µM); zone of inhibition at 0.4 mg/disc (S. aureus ATCC 6538P; [13]): 19 mm; MBC [8]: 100 µg/mL (≈ 595 µM); zone of inhibition at 0.4 mg/disc [8, 13]: 30 mm; zone of inhibition at 0.4 mg/disc [9, 13]: 20 mm
3 | OB(O)c1ccccc1 [PBA, phenylboronic acid, reference compound] |  |  |  |  |  |  |  |  |  |  |  |  |  |  |  | 0.10 | S (FICI ≤ 0.5, synergy) | S (FICI ≤ 0.5, synergy) | 0.07 | zone of inhibition at 300 µg/disc ([2]; BAA1705, read-out: Diameter of inhibition zone, MEM-10 disc with agent): 21 mm; MIC (E. coli 77 CMY-2(+); [14]): > 400 µg/mL; MIC [3, 15]: > 400 µg/mL; MIC [4, 15]: > 400 µg/mL; MIC (E. coli 76 KPC-2(+); [14]): > 400 µg/mL; MIC ([5]; Klebsiella pneumoniae, ATCCBAA1705, read-out: MIC of agent alone): > 400 µg/mL; MIC ([6]; Pseudomonas aeruginosa, read-out: MIC of agent alone): > 400 µg/mL; zone of inhibition at 300 µg/disc [7]: 24 mm
